What was measured:
[1] = test system: DP-IV; assay: inhibition of / affinity for DP-IV; assay type: biochemical
Description: As an illustrative embodiment, the ability of a test agent to inhibit DPIV can be assessed using a calorimetric or fluorometric substrate, such as Ala-Pro-paranitroanilide. […] Moreover, DPIV can be purified, and is accordingly readily amenable for use in such high throughput formats as multi-well plates.
An illustrative reaction mixture includes […] (pH7.8), 10 μM Ala-Pro-paranitroanilide, 6 milliunits of DPIV, and 2% (v/v) dimethylformamide in a total volume of 1.0 mL. The reaction is initiated by addition of enzyme, and formation of reaction product (paranitroanilide) in the presence and absence of a test compound can be detected photometrically, e.g., at 410 nm.

[2] = test system: blood glucose levels; assay: oral glucose tolerance test (oral glucose challenge) in mice; assay type: in vivo; settings: for glucose levels in blood / glucose control after a single injection: acute, single injection before oral glucose tolerance test; for blood sugar levels / glycemic excursion to oral glucose challenge, chronic treatment: injected twice daily for four days, then oral glucose challenge; for response to a sub-therapeutic dose of GLP-1: single injection, 8 μg GLP-1 five minutes prior to glucose
Description: The first two experiments are “acute” experiments wherein the mice were injected with a single dose of Pro-boro-pro. In the first set of experiments mice were injected with 150 μg of Pro-boro-pro (PBP-1) and then subjected to an oral glucose tolerance test within an hour. […] In a second set of experiments mice were injected with Pro-boro-pro (PBP-2) one hour prior to an oral glucose challenge test. FIG. 3 presents the results of these experiments. Each set of experiments was also performed using saline as a control.
The third set of experiments were “chronic” experiments, wherein the mice were injected twice daily with Pro-boro-pro for four days, followed by an oral glucose challenge.

Q: Which “affinity for DP-IV” value [1] does the source give for `CC(NC(=O)OC(C)(C)C)C(=O)N1CCCC1B(O)O` (stereo not drawn) [Boc-blocked Ala-boroPro, Boc-Ala-boroPro] here?
A: The value was “no affinity”.

Q: What does the source list for `O=C(C1CCCN1)N1CCCC1B(O)O` (centres unmarked) [Pro-boro-pro]?
A: fasting blood sugars, chronic treatment ([2]; chronic (>5 days) treatment alone): lowers; glucose levels in blood / glucose control after a single injection ([2]; mice): alone sufficient to improve glucose control; glucose levels in blood / glucose control after a single injection ([2]; mice, listed as PBP-1): improves glucose levels in blood; glucose levels in blood / glucose control after a single injection ([2]; mice, listed as PBP-2): improves glucose levels in blood; blood sugar levels / glycemic excursion to oral glucose challenge, chronic treatment ([2]; mice): lowers; blood sugar levels / glycemic excursion to oral glucose challenge, chronic treatment ([2]; mice, listed as PBP-3): lowering of the blood sugar levels; blood sugar, oral glucose challenge ([2]; mice, overall statement on the experiments): clearly lowers blood sugar; response to a sub-therapeutic dose of GLP-1 ([2]; mice): potentiate the response; response to a sub-therapeutic dose of GLP-1 ([2]; mice, listed as PBP-1): potentiates the response

Q: “L-Ala-L-boroPro-pinacol [early fraction]” was tested. Which “extent of DP-IV inhibition compared with later fractions” value ([1]; at equal concentrations, silica gel fractions of Ala-boroPro-pinacol) did it give?
A: The value was “inhibits DP-IV to a greater extent than later fractions”.

Reference: patent US6803357B1, “Method of regulating glucose metabolism, and reagents related thereto” (New England Medical Center Hospitals, Inc., priority 1999, dated 2004)
